The target in series [1] is T1, cMet (Homo sapiens, UniProt P08581).
T1 construct: Human colonoids provide clinically relevant levels of target expression; endogenous in cells; host or cells: Patient-derived human colonoids (cMet-high adenoma, cMet-low adenoma, normal), either cultured or implanted orthotopically in NSG mouse colon
Kind of series: Ex vivo immunofluorescence of excised NSG mouse colon with implanted colonoids, human-to-mouse (h/m) ratio. Format: binding. To be noted: excised NSG colon sections, peptide 5 μM 10 min RT, antibody 1:100, mean ± SD, n = 6 colonoids. As for the experimental part: Tissue sections were deparaffinized, and antigen retrieval was performed as described previously. Sections were blocked with goat serum for 30 min at RT followed by overnight incubation with 1:100 dilution of monoclonal anti-cMet antibody (Abcam; #EP1454Y) and undiluted human-specific anti-cytokeratin (CAM 5.2, BD Biosciences, Franklin Lakes, NJ, USA; #345779) at 4 °C. Thereafter, 1:500 AF488-labeled goat anti-rabbit secondary antibody (Life Technologies; #A-11029) and 1:500 AF568-labeled goat anti-mouse secondary antibody (Abcam, #ab175473) were administered. After washing with PBST, the slides were stained with the IRDye800-labeled peptides at a concentration of 5 μM for 10 min at RT. The tissue sections were then washed with PBST and mounted using a Prolong Gold reagent containing DAPI (Invitrogen; #P36931). NIR fluorescence images were collected using an inverted confocal microscope (Leica; Stellaris 5). The fluorescence intensities were quantified using custom MATLAB R2022a, and regions of saturated intensities were avoided.

Series [2] concerns the target T1, cMet. Kind of series: Peptide biodistribution, ex vivo NIR fluorescence of resected organs and colonoids (Pearl Trilogy). The format is in vivo. To be noted: NSG mice, 200 μM, 200 μL i.v., 1 hour post-injection, ex vivo λex 785 / λem 820 nm, mean ± SD. As for the experimental part:
Peptides (200 μM, 200 μL) were injected intravenously in NSG mice ~3 weeks after orthotopic implantation of the patient-derived colonoids. The mice were euthanized at 1 h post-injection. Major organs were resected and imaged using the Pearl Trilogy (LI-COR Biosciences) with excitation at λex = 785 nm and emission at λem = 820 nm to measure the peptide biodistribution. Fluorescence intensities were quantified from each whole tumor or organ using Image Studio 5.5.4 software (LI-COR Biosciences).

A further series deals with colonic adenomas. In words: In vivo NIR fluorescence endoscopy of spontaneous colonic adenomas in CPC;Apc mice (pharmacokinetics, T/B ratio). On the set-up: species or system mouse. As for the experimental part: CPC;Apc mice have been genetically engineered to sporadically delete an APC gene regulated by a Cre promoter (CDX2P-9.5NLS-Cre) to spontaneously form either flat or polypoid adenomas in the distal colon.
The IRDye800-labeled target peptide (200 μM, 200 μL) was injected intravenously in Cpc;Apc mice, and fluorescence images were collected at 0, 0.5, 1, 2, 4, 6, 10, 24, 48 h post-injection using the small animal endoscope. The IRDye800-labeled scrambled (control) peptide was administered and imaged the same way 3 days after. The adjacent nontumor tissue region with an equal area of the tumor region was used for background. The time point with the highest target-to-background (T/B) ratio was selected as peak uptake.

In series [3] the target is T1, cMet. Kind of series: In vivo NIR fluorescence endoscopy of patient-derived colonoids implanted orthotopically in NSG mouse colon. As to conditions: NSG mice, 1 h post-injection, n = 6 mice. As for the experimental part:
Colonoids were harvested and treated, as described previously. Colonoids were resuspended in engraftment medium: DPBS, 5% Matrigel, 10 µM Y27632. Prior to colonoid implantation, 7–12-week-old NSG (NOD.Cg-Prkdc^scidIl2rg^tm1Wjl/SzJ, Jackson laboratory, #005557) mice were treated with 2.5% dextran sulfate sodium (DSS) for 5 days and supplied with regular water for another day. Anesthesia was induced and maintained via a nose cone with inhaled isoflurane mixed with oxygen at concentrations of 2–4% at a flow rate of 0.5 L/min. A total of ~2.5–5 × 10^5 cell aggregates in 200 μL were injected intrarectally. The rectum was closed immediately using tissue adhesive (Santa Cruz Biotechnology, Dallas, TX, USA; #SC361931) to promote retention of the implanted colonoids. Colonoid growth was monitored weekly by small animal endoscopy with white light illumination. Imaging was performed after the implanted adenomas were clearly visible.
Mice were fasted for 4–6 h prior to in vivo imaging. Anesthesia was induced and maintained using inhaled isoflurane mixed with oxygen at concentrations of 2–4% and a flow rate of 0.5 L/min via a nose cone. The peptides were injected intravenously using a concentration of 200 μM diluted in 200 μL of PBS. A rigid small animal endoscope (Karl Storz Veterinary Endoscopy, Goleta, CA, USA) was modified to deliver NIR excitation at λex = 785 nm. This instrument was inserted into the mouse rectum at 1 h post-injection to collect in vivo fluorescence images. After 3 days to allow for target peptide clearance, the scrambled (control) peptide was administered systemically and imaged similarly. A total of n = 3 independent regions of interest (ROI) with dimensions of 20 × 20 μm^2 were identified randomly from the implanted area (target) and from adjacent normal colonic mucosa (background). The mean fluorescence intensities were used to calculate target-to-background (T/B) ratios.

A short description of series [4]: Peptide safety: necropsy histology (H&E), blood hematology and chemistry. As to conditions: CPC;Apc mice, 200 μM, 200 μL i.v., 48 h post-injection. Format: in vivo, mouse. As for the experimental part:
CPC;Apc mice were euthanized at 48 hours post-injection with QQT* -IRDye800 (200 μM, 200 μL). Vital organs were excised, sectioned, and evaluated by routine histology (H&E) to evaluate for signs of acute toxicity. Whole blood was collected retro-orbitally using a capillary tube and submitted for evaluation of hematology and chemistry.

A short description of series [5]: Serum stability by analytical RP-HPLC. Format: in vitro ADME. To be noted: CPC;Apc mouse serum 194 μL, 30 μM peptide, 37 °C, 0, 0.5, 1, 2, 4, 8, 24 h, acetonitrile precipitation, RP-HPLC area under the peak, R^2 = 0.99; read-out: Half-life T1/2 in mouse serum (converted). As for the experimental part:
Peptide stability was evaluated by incubating 6 μL of 1 mM peptide in PBS at 37 °C, resulting in a final concentration of 30 μM in 194 μL of serum obtained from a CPC;Apc mouse. Samples were precipitated by adding a double volume of acetonitrile and centrifuging for 10 min at 4 °C. RP-HPLC was performed at 0, 0.5, 1, 2, 4, 8, and 24 h. The relative peptide concentrations were determined by measuring the area under the peak (Waters, Breeze 2). The coefficient of determination R^2 was determined using Graphpad Prism 8 software (GraphPad Software, Boston, MA, USA).

The mark [6] stands for this setting: 200 μM, 200 μL i.v., images at 0-48 h.
Where [7] appears, read: spontaneous adenomas, 1 hour after i.v. administration, mean ± SD.
Setting [8] is: 200 μM in 200 μL i.v., mean ± SD.

This is an account of results in publication PMC10571995, “Near-Infrared Imaging of Colonic Adenomas In Vivo Using Orthotopic Human Organoids for Early Cancer Detection” (Cancers, 2023).

The structures appear in SMILES notation. Residues, ends and D or L forms follow the SMILES beside them. *: point of attachment. X2 = CC1(C)C(/C=C/C2=C(Oc3ccc(S(=O)(=O)O)cc3)C(=C/C=C3/N(CCCCCC(=O)NCCN4C(=O)CC(*)C4=O)c4ccc(S(=O)(=O)O)cc4C3(C)C)/CCC2)=[N+](CCCCS(=O)(=O)[O-])c2ccc(S(=O)(=O)O)cc21; X1 = CC1(C)C(=CC=C2CCCC(C=CC3=[N+](CCCCS(=O)(=O)[O-])c4ccc(S(=O)(=O)O)cc4C3(C)C)=C2Oc2ccc(S(=O)(=O)O)cc2)N(CCCCCC(=O)NCCN2C(=O)CC(*)C2=O)c2ccc(S(=O)(=O)O)cc21

T1 sequence (P08581 25-1390): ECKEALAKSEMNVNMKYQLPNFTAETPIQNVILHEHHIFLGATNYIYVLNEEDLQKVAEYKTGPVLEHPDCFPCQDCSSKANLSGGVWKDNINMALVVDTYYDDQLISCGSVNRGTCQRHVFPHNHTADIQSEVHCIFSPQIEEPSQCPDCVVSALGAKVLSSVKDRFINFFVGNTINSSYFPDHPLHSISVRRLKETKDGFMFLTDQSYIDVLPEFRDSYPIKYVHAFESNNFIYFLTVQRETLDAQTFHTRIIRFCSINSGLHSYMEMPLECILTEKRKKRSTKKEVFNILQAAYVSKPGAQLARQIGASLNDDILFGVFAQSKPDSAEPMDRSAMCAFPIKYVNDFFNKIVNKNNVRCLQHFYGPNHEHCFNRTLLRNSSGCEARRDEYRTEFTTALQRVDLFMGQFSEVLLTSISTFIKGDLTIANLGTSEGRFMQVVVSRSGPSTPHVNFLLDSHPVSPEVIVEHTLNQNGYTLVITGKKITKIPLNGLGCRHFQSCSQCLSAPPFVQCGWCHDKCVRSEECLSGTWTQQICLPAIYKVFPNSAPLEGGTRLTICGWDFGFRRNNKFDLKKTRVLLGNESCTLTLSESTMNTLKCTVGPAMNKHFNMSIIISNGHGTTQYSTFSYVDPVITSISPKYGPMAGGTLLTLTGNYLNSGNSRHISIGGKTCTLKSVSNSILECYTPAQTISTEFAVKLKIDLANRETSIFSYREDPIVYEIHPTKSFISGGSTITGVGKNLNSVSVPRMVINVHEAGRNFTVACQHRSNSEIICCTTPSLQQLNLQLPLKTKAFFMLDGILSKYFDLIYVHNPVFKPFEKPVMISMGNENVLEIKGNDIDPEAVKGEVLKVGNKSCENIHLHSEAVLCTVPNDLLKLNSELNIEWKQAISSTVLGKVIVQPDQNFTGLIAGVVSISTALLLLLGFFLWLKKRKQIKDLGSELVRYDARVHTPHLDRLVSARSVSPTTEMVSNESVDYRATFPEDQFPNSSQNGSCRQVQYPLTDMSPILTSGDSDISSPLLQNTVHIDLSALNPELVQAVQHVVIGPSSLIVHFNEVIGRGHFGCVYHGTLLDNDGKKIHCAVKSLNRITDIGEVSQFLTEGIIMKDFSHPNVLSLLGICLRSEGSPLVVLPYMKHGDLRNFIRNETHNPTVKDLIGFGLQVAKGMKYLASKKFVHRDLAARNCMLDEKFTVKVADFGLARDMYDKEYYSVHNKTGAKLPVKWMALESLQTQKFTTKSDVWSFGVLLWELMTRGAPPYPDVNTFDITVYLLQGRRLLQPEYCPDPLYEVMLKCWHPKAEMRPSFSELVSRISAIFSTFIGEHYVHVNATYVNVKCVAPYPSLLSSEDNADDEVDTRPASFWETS

Regarding `CC(C)C[C@H](NC(=O)[C@H](CO)NC(=O)[C@H](Cc1c[nH]c2ccccc12)NC(=O)[C@H](CC(N)=O)NC(=O)[C@@H](NC(=O)[C@H](CCC(N)=O)NC(=O)[C@@H](N)CCC(N)=O)[C@@H](C)O)C(=O)NCC(=O)NCC(=O)NCC(=O)N[C@@H](CO)C(=O)N[C@@H](CSC1CC(=O)N(CCNC(=O)CCCCCN2C(=CC=C3CCCC(C=CC4=[N+](CCCCS(=O)(=O)[O-])c5ccc(S(=O)(=O)O)cc5C4(C)C)=C3Oc3ccc(S(=O)(=O)O)cc3)C(C)(C)c3cc(S(=O)(=O)O)ccc32)C1=O)C(N)=O` (stereo partly drawn) [QQT*-IRDye800] (H-QQTNWSLGGGSC(X1)-NH2; N-terminus and C-terminus assumed), at cMet [1], the “Fluorescence intensity human-to-mouse (h/m) ratio, cMet^high adenoma colonoid” value stood at 7.68 ± 1.23; the “Fluorescence intensity human-to-mouse (h/m) ratio, cMet^low adenoma” value is 0.87 ± 0.31; the “Fluorescence intensity human-to-mouse (h/m) ratio, normal colonoid” value was 1.19 ± 0.39. In the series with cMet [2], the “Uptake (quantified fluorescence) by cMet^high adenoma colonoid” value was 1.24±0.16, the “Uptake (quantified fluorescence) by cMet^low adenoma colonoid” value is 0.23±0.08 and the “Uptake (quantified fluorescence) by normal human colonoid” value turned out to be 0.18±0.04. Further, the “Peak T/B ratio (peak uptake by the adenoma)” value in the series on colonic adenomas (200 μM, 200 μL i.v., at 1 h post-injection, mean ± SD, n = 6 mice) is 2.2 ± 0.4. In the series on colonic adenomas (setting [6]), the “Time of peak uptake (peak T/B ratio) post-injection” value is listed as 1 h and the “Time to clearance of signal (return to baseline)” value is recorded as ~ 24 h. Further, in the series with colonic adenomas (setting [7]), the “T/B ratio, flat lesions” value is given as 2.17±0.30; the “T/B ratio, grossly visible adenomas” value amounted to 1.91±0.28; the “T/B ratio, small adenomas” value was found to be 2.23±0.43. Besides, the “Quantified fluorescence intensity (T/B ratio) in vivo, cMet^high adenoma” value on cMet [3] (200 μM in 200 μL i.v., endoscope λex 785 nm, mean ± SD) worked out at 2.35 ± 0.35. On cMet [3] (setting [8]), the “Quantified fluorescence intensity (T/B ratio) in vivo, cMet^low adenoma” value turned out to be 1.19 ± 0.12 and the “Quantified fluorescence intensity (T/B ratio) in vivo, normal colonoid” value was 1.22 ± 0.18. Further, at cMet [3], the “Fold increase QQT*-IRDye800 versus TLQ*-IRDye800, cMet^high adenoma” value was 1.8 fold. Also, the “Acute toxicity in animal necropsy, histology (H&E) of vital organs” value in series [4] is on record as “No signs of acute toxicity”. For the same compound, the “Whole blood hematology and chemistry” value in series [4] (n = 6 mice) is “No significant abnormalities”. In addition, the half-life at 30 μM in series [5] is 3.6 h.
In the case of `CC(C)C[C@H](NC(=O)[C@@H](N)[C@@H](C)O)C(=O)N[C@@H](CCC(N)=O)C(=O)N[C@@H](Cc1c[nH]c2ccccc12)C(=O)N[C@@H](CC(N)=O)C(=O)N[C@@H](CCC(N)=O)C(=O)N[C@@H](CO)C(=O)NCC(=O)NCC(=O)NCC(=O)N[C@@H](CO)C(=O)N[C@@H](CSC1CC(=O)N(CCNC(=O)CCCCCN2/C(=C/C=C3\CCCC(/C=C/C4=[N+](CCCCS(=O)(=O)[O-])c5ccc(S(=O)(=O)O)cc5C4(C)C)=C3Oc3ccc(S(=O)(=O)O)cc3)C(C)(C)c3cc(S(=O)(=O)O)ccc32)C1=O)C(N)=O` (stereo partly drawn) [TLQ*-IRDye800, reference compound] (H-TLQWNQSGGGSC(X2)-NH2), in the series with cMet [2], the “Uptake (quantified fluorescence) by cMet^high adenoma colonoid” value came to 0.29±0.098 and the “Uptake (quantified fluorescence) by cMet^low adenoma colonoid” value stood at 0.25±0.06.
